Values of other authors as cited in publication PMC7135267, “Modified linear regression predicts drug-target interactions accurately” (PLoS ONE, 2020).

Tested on: CFTR
Conditions: rats, caffeine intake

Cn1c(=O)c2c(ncn2C)n(C)c1=O [D00528, Caffeine]
CFTR chloride secretion in intestine: increased
